System: FKBP-AGT fusion protein (SNAP-FKBP)
Assay: Reactivity with FKBP-AGT fusion protein (protein trimer formation, SDS-PAGE/coomassie)
Format: biochemical
Settings: in vitro, 4 h incubation at rt, SDS-PAGE with coomassie staining
Method: Determination of the Reactivity of Compound (FIG. 89), (FIG. 90), (FIG. 91), (FIG. 92) and (FIG. 96) with FKBP-AGT Fusion Protein 1 μL of a 591 μM solution of FKBP protein fused to a variant of AGT available from Covalys as […] and 1 μL of a 100 μM solution of compound (FIG. 89), (FIG. 90), (FIG. 91), (FIG. 92) or (FIG. 96) are added to 8 μL of a solution of 50 mM Tris-HCl pH 7.5; 100 mM NaCl; 0.1% Tween20TM; 1 mM DTT. Following a 4 h incubation at rt, 15 μL of a solution of 100 mM Tris-HCl pH 6.8; 2% SDS; 35% glycerol; 10 mM EDTA; 20 mM DTT is added. Then the mixture is boiled for 5 min at 95° C. After cooling to rt, 25 μL of this solution is loaded on a 4-20% linear gradient SDS-PAGE gel. After electrophoresis, the proteins are coomassie stained in gel to visualize protein trimer.

Sequence of FKBP-AGT fusion protein (SNAP-FKBP) (P16455 1-182 C62A/K125A/A127T/R128A/G131K/G132T/M134L/R135S/C150S/N157G/S159E limits assumed): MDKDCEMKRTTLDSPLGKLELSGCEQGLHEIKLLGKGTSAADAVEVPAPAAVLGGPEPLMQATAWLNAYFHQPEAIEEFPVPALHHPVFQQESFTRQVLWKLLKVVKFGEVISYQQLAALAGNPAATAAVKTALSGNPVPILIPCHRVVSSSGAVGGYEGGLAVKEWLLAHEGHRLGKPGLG

Substance | structural ability to trigger the formation of a protein trimer
N-Tris-{[2-(BG-PEG12-NH)-carbonylethoxy]methyl}-methyl 5-maleimidopentanecarboxamide [FIG. 92] | confirmed
N-Tris-{[2-(BG-PEG12-NH)-carbonylethoxy]methyl}-methyl nile red-oxyacetamide [FIG. 91] | confirmed
N-Tris-{[2-(BG-PEG12-NH)-carbonylethoxy]methyl}methyl 7-(diethylamino)coumarin-3-carboxamide [FIG. 89] | confirmed
N-Tris-{[2-(BG-PEG12-NH)-carbonylethoxy]methyl}-methyl ATTO-495-carboxamide [FIG. 90] | confirmed
N-Tris-{[2-(BG-PEG12-NH)-carbonylethoxy]methyl}-methyl-3-[2-(2-maleimidoethyl)disulfanyl]propanoylamide [FIG. 96] | confirmed
